# Results as given in patent US20260015333A1, “COMPOUNDS AND METHODS FOR INHIBITION OF THE EVOLUTION OF […]” (priority 2022, published 2026).
# What was measured:
# Format in all cases: cell-based
# S. typhimurium ST19 = assay: Invasion and infection efficiency in HeLa cells; details: 31.25 μM ARM-1, compared to untreated WT
# Method: FIGS. 3A-3C depict how ARM-1 reduces mutation frequency in culture and during infection. FIG. 3A depicts a Luria-Delbruck fluctuation assay with ARM-1 treatment. Single colonies of WT and Δmfd S. typhimurium ST19 were used to inoculate overnight cultures with appropriate antibiotic selection. Cultures were then diluted back to OD600 0.0005 and grown to OD600 0.5 with or without 100 μM ARM-1 treatment. Samples were plated on 80 ng/ml ciprofloxacin and grown overnight, then enumerated the following day. Data shown are the result of a minimum of 50 replicates. FIG. 3B depicts the invasion and infection efficiency in the presence of ARM-1. WT S. typhimurium ST19 in mid-log phase growth was used to infect HeLa cells. Invasion was allowed to proceed for 1 hour before uninternalized bacteria were removed and fresh media applied, containing vehicle control or 31.25 μM ARM-1. At the indicated timepoints, HeLa cells were lysed using 1% Triton-H2O and intracellular bacteria serially diluted and plated on LB for CFU enumeration. FIG. 3C depicts mutation frequency post mammalian cell infection. WT and Δmfd S. typhimurium ST19 were used to infect HeLa cells as described in FIG. 3B. Following infection, intracellular bacteria were harvested and plated on 50 μg/mL 5-fluorocytosine and grown overnight. Mutants were enumerated the following morning. […]
# P. aeruginosa = assay: Evolution assay of antibiotic resistance; details: 100 μM ARM-1, rifampicin
# Source text: (§1) FIGS. 4A-4C depict how ARM-1 inhibits the evolution of antibiotic resistance. FIG. 4A depicts the minimum inhibitory concentration of ARM-1 in E. coli and S. aureus. FIGS. 4B-4C depict the evolution of indicated species against (FIG. 4B) rifampicin and (FIG. 4C) trimethoprim in the presence of ARM-1. Heatmaps show median MIC over time. Concentrations are indicated to the right of each plot. Each strain and antibiotic is the result of at least 12 biological replicates. Concentration of ARM-1 used against L. monocytogenes, P. aeruginosa, and S. aureus is 100 μM. Concentration of ARM-1 used against S. typhimurium is 50 μM. Populations of bacteria are grown overnight in a series of increasing antibiotic concentrations, with or without ARM-1 present. The following day, the population from the highest tolerated concentration is re-challenged with higher concentrations of antibiotic. The median MIC is determined after each 24 hour growth period as the lowest concentration of antibiotic at which at least 50% growth impairment is observed compared to an untreated population. MIC fold change is reported as the change in MIC from the first day of growth to each subsequent day.
# (§2) Next, the effect of ARM-1 on the evolution of antibiotic resistance was examined. Genetic deletion of Mfd is known to reduce the rates and extent of resistance development in laboratory evolution experiments. Using an assay previously developed, the impact of ARM-1 was assessed on resistance development across diverse pathogens and in response to multiple classes of antibiotics. In these experiments, bacteria are challenged with increasing concentrations of antibiotic over a minimum of least 55 generations. Reduced resistance development in bacteria treated with ARM-1 was observed compared to those that were untreated, in all species and antibiotics tested. […] This pattern was also observed in P. aeruginosa, S. aureus, and L. monocytogenes, with ARM-1 treatment resulting in 80, […] reduction in resistance to rifampicin, respectively (FIG. 4B). […] Sequencing of relevant resistance loci over the course of treatment confirmed that these observations are due to genetic changes; many more resistance mutations arise in untreated populations compared to those treated with ARM-1 (Table 1). […] Furthermore, patient isolates of S. typhimurium, S. aureus, and P. aeruginosa which already carry resistance mutations to other antibiotics were used, and still observed a reduction in resistance development during experiments. […]
# (§3) Evolution experiments were performed for the indicated strains. […] Optical densities were subsequently measured in an Epoch2 microplate spectrophotometer (BioTek). […]
# S. aureus = assay: Evolution assay of antibiotic resistance; details: 100 μM ARM-1, rifampicin
# Source text: as §1, §2, §3
# L. monocytogenes = assay: Evolution assay of antibiotic resistance; details: 100 μM ARM-1, rifampicin
# Source text: as §1, §2, §3
# S. typhimurium = assay: Evolution assay of antibiotic resistance; details: challenged with rifampicin or trimethoprim, or phosphomycin; 50 μM ARM-1
# Source text: as §1, §2, §3
smiles,measurement,setting,value
"Cc1cc(Br)ccc1-c1ccc(CNCCCN(C)C)o1 [ARM-1, N^1-((5-(4-bromo-2-methylphenyl)furan-2-yl)methyl)-N^3,N^3-dimethylpropane-1,3-diamine]",defect in invasion or proliferation in HeLa cells,S. typhimurium ST19,Neither the Δmfd mutant nor ARM-1 or solvent-treated wild-type or Δmfd strains show a defect in invasion or proliferation
same,reduction in resistance to rifampicin,P. aeruginosa,80 FOLD
same,reduction in resistance to rifampicin,S. aureus,800 FOLD
same,reduction in resistance to rifampicin,L. monocytogenes,1000 FOLD
same,difference in median MIC fold change between untreated and treated,S. typhimurium,≥ 100 fold
